Target: T1, glucose oxidase (GOx) (Aspergillus niger, UniProt P13006)
T1 construct: commercial type VII preparation (Sigma Aldrich), free enzyme
Assay: HRP-coupled ABTS colorimetric assay, absorbance at […] nm
Format: biochemical
Details: co-substrate oxygen; 20 nM HRP, 2 mM ABTS; PBS pH 7.4; 23 °C; read-out: Michaelis-Menten kinetics (Km)

T1 sequence (P13006 23-605): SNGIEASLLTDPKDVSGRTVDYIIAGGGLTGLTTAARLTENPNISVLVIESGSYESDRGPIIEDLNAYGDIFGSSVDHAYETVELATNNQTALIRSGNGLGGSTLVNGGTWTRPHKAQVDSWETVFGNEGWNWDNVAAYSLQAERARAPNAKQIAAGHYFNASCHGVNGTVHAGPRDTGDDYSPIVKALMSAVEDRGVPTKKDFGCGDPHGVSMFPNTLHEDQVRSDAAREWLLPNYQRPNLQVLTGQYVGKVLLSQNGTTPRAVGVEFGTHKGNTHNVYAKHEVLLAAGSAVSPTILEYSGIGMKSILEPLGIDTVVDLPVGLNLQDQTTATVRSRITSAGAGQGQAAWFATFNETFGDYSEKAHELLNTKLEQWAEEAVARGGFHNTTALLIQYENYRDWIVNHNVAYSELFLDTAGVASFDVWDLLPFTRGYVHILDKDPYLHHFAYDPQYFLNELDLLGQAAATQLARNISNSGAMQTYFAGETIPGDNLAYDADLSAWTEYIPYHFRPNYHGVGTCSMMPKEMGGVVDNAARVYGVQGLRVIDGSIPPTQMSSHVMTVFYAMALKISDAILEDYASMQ

D-glucose showed a Km of 15 mM.
